# Measured values from US6849607B2, “Galectin recognized photosensitizers for photodynamic therapy” (Health Research, Inc., priority 2001, dated 2005).
# pIC50: −log10 of the molar value.
# Legend:
# [1] = target: Gal-1 (Homo sapiens, UniProt P09382); assay: Gal-1 inhibition binding, indirect ELISA (Gal-1-HRP conjugate on asialofetuin-coated wells)
# Method: Cell. Biochem., 43, 43-57, 1990) to eliminate the thiol requirement for retention of carbohydrate-binding activity. Coupling of alkylated galaptin to Horseradish peroxidase (HRP) was carried out by a two-step glutaraldehyde procedure as described by Engvall (Engvall E., Enzyme Immunoassay ELISA and EMIT, Methods in Enzymology, 70, 419-439, 1980). The galactin-peroxidase conjugate was prepared in 50% glycerol-1% BSA and stored at -20° C. until use. The binding of the Gal-1 to photosensitizers with and without the galactose moiety was measured by an indirect ELISA method as described by Chen et al. […] The microtiter wells (Dynatech Laboratories, Chantilly, Va.) were coated with 2 μg asial fetuin (Sigma) in 100 μl of 0.1M sodium carbonate, 0.2% NaN3, pH 9.6 at 37° C. for 3h. The plates were tightly covered with parafilm and stored at 4° C. for use within three weeks. The optimal dilution for Gal-1HRP conjugate was determined by checker-board titration. For studying the effect of saccharides and their conjugates, 60 μl aliquots of diluted Gal-1-HRP conjugate containing 1.4 μg of Gal-1 were mixed separately in duplicate with 60 μl dilute buffer as well as serially diluted test compounds and incubated for 1 h at 37° C. A 100 μl aliquot was transferred to the microtiter wells, which had been coated with […] Fetuin, blocked and washed. The plates were then incubated for 1 h at 37° C. followed by color development with ABTS (Kirkegaard & Perry lab. Gaithersburg, Md.) and reading at 405 nm on an ELISA reader.
# [2] = tested on: Molt-4 human leukemic T-cells; assay: In vitro photosensitizing efficacy in Molt-4 cells (MTT); assay type: cell-based; details: for effect of the free saccharide on PDT activity of the conjugate: Molt-4 cells incubated with galactose or lactose at various concentrations (0-100 μM)
# Method: Both cell lines are known to have some expression for Galectin-1 ([…]., Baum, L. G. and Brewer, C. F., Multivalent Protein-carbohydrate Interactions. A New […] for Super Molecular Assembly and Signal Transduction, Biochemistry, 40:3009-3015, 2001). The Molt-4 cells were grown in RPMI 1640 5% FCS (Fetal calf serum) in 100% humidity with 5% CO2. Cells were transferred to phenol red free (PRF) RPMI 1640 media with 1% FCS and plated at 2.5×10^4 cells/well. After 3 hours incubation in the dark, the cells were washed once with PBS and re-suspended in prf RPMI 1640 with 1% FCS. These cells were then illuminated with a […] Quartz Halogen Lamp with IR and bandpass dichroic filters to allow light between 400 nm-700 nm, at a dose rate of 16 mW/cm^2 at 695 nm. The RIF tumor cells were grown in alpha-DMEM with 10% fetal calf serum, penicillin and streptomycin. Cells were maintained in 5% CO2, 95% air and 100% humidity. […] After overnight incubation to allow the cells to attach the photosensitizers 14 were individually added at variable concentrations. After a 3 hr incubation in the dark at 37° C., the cells were washed once with PBS, then irradiated with the same light source as above (Molt-4 procedure), and the optimal cell kill was obtained at a concentration of 1.0 μM. After PDT the cells were washed once and placed in complete media and incubated for 48 hrs. […] Louis, Mo.) was added to each well (Kessel, D., Luo, Y., Photodynamic Therapy: A Mitochondrial Inducer of Apoptosis, Cell Death Differ. 6:28-35, 1999; MacDonald, I., Morgan, […]., Litchfield, D. J. Dougherty, T. J., Subcellular Localization Patterns and their Relationship to Photodynamic Activity of Pyropheophorbide-a Derivatives, Photochem. Photobiol., 70, 789-997, 1999). After 4 hr incubation at 37° C. the MTT+media were removed and 100 μl DMSO was added to solubilize the formazin crystals. The 96-well plate was read on a microtiter plate reader (Miles Inc. Titertek Multiscan Plus MK II) at an absorbance of 560 nm. The results were plotted as percent survival of the corresponding dark (drug no light) control for each compound tested. Each data point represents the mean from 3 separate experiments, and the error bars are the standard deviation. Each experiment was done with 5 replicate wells. […] The cells were then washed once with phosphate buffer saline (PBS), carbohydrate conjugates were then added, and the cells were again incubated for an additional 3 hrs. After treating with light, the cells were re-suspended in fresh media and incubated for 48 hrs. MTT was added to the cells and incubated for an additional 4 hrs. Dimethylsulfoxide (100 μl) was then added to each well to dissolve the formazin crystals. The plates were read on a 96 well plate reader at an absorbance of 560 nm. The data are in replicates of 6 wells and are normalized to control cells (light, no drug). In another set of experiments, a similar procedure was followed, except, the cells were not washed before the light treatment. […] Louis, Mo.) was added to the cells and incubated for an additional 4 hrs. Dimethylsulfoxide (100 μl) was then added to each well to dissolve the formazin crystals. The plates were read on a 96 well plate reader (Miles Inc. Titertek Multiscan Plus MK II) at an absorbance of 560 nm. The data are in replicates of 6 wells and are normalized to control cells (light, no drug).
# [3] = tested on: radiation induced fibrosarcoma (RIF) tumor cell; assay: In vitro photosensitizing activity in RIF tumor cells (MTT); assay type: cell-based; details: 2.0 μM, light dose of 4 J/cm2
# Method: Both cell lines are known to have some expression for Galectin-1 (Sacchettini, J. C., Baum, L. G. and Brewer, C. F., Multivalent Protein-carbohydrate Interactions. A New Paradiagm for Super Molecular Assembly and Signal Transduction, Biochemistry, 40:3009-3015, 2001). The Molt-4 cells were grown in RPMI 1640 5% FCS (Fetal calf serum) in 100% humidity with 5% CO2. Cells were transferred to phenol red free (PRF) RPMI 1640 media with 1% FCS and plated at 2.5×10^4 cells/well. After 3 hours incubation in the dark, the cells were washed once with PBS and re-suspended in prf RPMI 1640 with 1% FCS. These cells were then illuminated with a 1000W Quartz Halogen Lamp with IR and bandpass dichroic filters to allow light between 400 nm-700 nm, at a dose rate of 16 mW/cm^2 at 695 nm. The RIF tumor cells were grown in alpha-DMEM with 10% fetal calf serum, penicillin and streptomycin. Cells were maintained in 5% CO2, 95% air and 100% humidity. For determining the PDT efficacy, these cells were plated in 96-well plates and a density of 1×10^4 cells well in complete media. After overnight incubation to allow the cells to attach the photosensitizers 14 were individually added at variable concentrations. After a 3 hr incubation in the dark at 37° C., the cells were washed once with PBS, then irradiated with the same light source as above (Molt-4 procedure), and the optimal cell kill was obtained at a concentration of 1.0 μM. After PDT the cells were washed once and placed in complete media and incubated for 48 hrs. […] The 96-well plate was read on a microtiter plate reader (Miles Inc. Titertek Multiscan Plus MK II) at an absorbance of 560 nm. […]
# Chain of Gal-1 (P09382 whole entry): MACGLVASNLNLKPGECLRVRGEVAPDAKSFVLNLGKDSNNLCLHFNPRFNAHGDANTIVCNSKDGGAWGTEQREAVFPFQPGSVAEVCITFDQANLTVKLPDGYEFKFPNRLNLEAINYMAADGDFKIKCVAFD
"pIC50 ([1]; ELISA, read-out: I50, inhibition of Gal-1 binding)",inhibition at 450 µM ([1]; at 450 μM) [%],inhibition of Gal-1 binding ([1]; at 450 μM) [%],SMILES,"in vitro photosensitizing efficacy (in words) ([2]; Molt-4 cells, 2.0 μM, 2a, 3a compared to 1a, 4a compared to 2a and 3a)","effect of free lactose on PDT efficacy of the photosensitizer ([2]; Molt-4 cells, photosensitizer with lactose in a ratio of 1:100, without washing)",cell kill [3] [%],effect of the free saccharide on PDT activity of the conjugate [2]
3.94,,,"C=C(C=CCO[C@@H]1O[C@H](CO)[C@H](O)[C@H](O)[C@H]1O)CN1C(=O)c2c3nc(cc4[nH]c(cc5nc(cc6[nH]c2c(c6C)C1=O)C(CC)=C5C)c(CC)c4C)C(C)C3CCC(=O)OC (mixture of isomers) [2a, Galactose-Chlorin conjugate Joined with diene linkage]",significant increases in photosensitizing efficacy,complete inhibition in PDT efficacy,100,
,3,3.29,"O=C[C@H](O)[C@@H](O)[C@@H](O)[C@H](O)CO [galactose, reference compound]",,,,did not result in any inhibition in PDT activity
,,,"OC[C@H]1O[C@@H](O[C@H]2[C@H](O)[C@@H](O)C(O)O[C@@H]2CO)[C@H](O)[C@@H](O)[C@H]1O (some centres unmarked) [lactose, reference compound]",,,,significant decrease in photosensitizing efficacy
